{Fluor} = fluorophore: 5-carboxyfluorescein (FAM) or Alexa Fluor 488
Key:
DU145 = experiment: Stimulation of macropinocytosis (dextran uptake); assay type: cell-based
Description: (Panel A) DU145 cells were treated with 10 μM tAS1411 or 10 μM tCRO or no oligonucleotide in complete DMEM medium at 37° C. for the time indicated. After treatment, cell medium was changed for fresh complete medium containing 0.2 mg/ml dextran-10K labeled with Alexa Fluor 488, and cells were incubated for 30 min at 37° C. After incubation, cells were harvested and analyzed by flow cytometry to determine dextran uptake. (Panel B) The same experiment was performed using Hs27 cells. (Panel C) DU145 cells were treated with 10 μM tAS1411 or 10 μM tCRO or no oligonucleotide in complete DMEM medium at 37° C. for 48 h. After treatment, cell medium was changed for fresh complete medium containing 0.2 mg/ml dextran-10K tagged with Alexa Fluor 488, and cells were incubated for 30 min at 37° C. Then, cells were washed with cold PBS, added PBS containing 5 μg/ml PI and incubated on ice for 5 min. After washing with cold PBS, cells were fixed and the distribution of macropinocytic marker was visualized by confocal microscopy. The nucleus was stained with DAPI (blue). Scale bars, 10 μm. All experiments have been repeated at least three times. Data are mean of three independent samples; bars, SE; *(p<0.05).
FIG. 6 are graphs showing that nucleolin regulates AS1411-induced stimulation of macropinocytosis. DU145 cells were untreated (no transfection) or transfected, without siRNA (mock), or with 30 nM of one of three different nucleolin siRNAs (NCL1, NCL2, NCL3) or a control siRNA (scramble). 48 h after transfection, cells were incubated with 10 μM tAS1411, 10 μM tCRO, or no oligonucleotide in complete DMEM medium at 37° C. for 24 h. (Panel A) After treatment, cell medium was changed for fresh complete medium containing 0.2 mg/ml dextran-10K labeled with Alexa Fluor 488 (green) and incubated for 30 min at 37° C. (Panel B) After treatment, some cells were washed, fresh complete medium containing 10 μM FL-AS1411 added and incubated for 2 h at 37° C. After incubation, cells were harvested and analyzed by flow cytometry. Mean fluorescence was normalized to “not transfected” control (Panel A) or to no pre-treatment control (Panel B). All experiments have been repeated at least three times. Data are the mean of three independent samples; bars, SE; *(p<0.05).
FIG. 11 is a graph showing a comparison between AS1411 and tAS1411 in the ability to stimulate macropinocytosis. DU145 cells were plated 18 hr before treatment with different concentrations (0, 5, 10, or 15 μM) of AS1411, tAS1411 or tCRO in complete DMEM medium at 37° C. for 48 h. After treatment, cell medium was changed for fresh complete medium containing 0.2 mg/ml dextran-10K labeled with Alexa Fluor 488, and cells were incubated for 30 min at 37° C. After incubation, cells were incubated on ice with […] PI in PBS, harvested, fixed and immediately analyzed by flow cytometry.
To analyze uptake of the oligodeoxynucleotides or dextran-10K (macropinocytic marker) by flow cytometry, 2×10^5 cells in fresh supplemented culture medium (2.5 ml) were plated into 6-well plates for 18 h. After complete adhesion, the cells were incubated with 5′-FAM tagged oligodeoxynucleotides or Alexa Fluor 488 tagged dextran-10K and incubated as indicated in the Description of the Drawings. Cells were washed once with ice-cold PBS, incubated with 1 μg/ml 7-amino-actinomycin D (7-AAD) for 5 min on ice or 1 μg/ml propidium iodide (PI), and washed twice with ice-cold PBS. Cells were then treated with 0.01% trypsin/0.5 mM EDTA (300 μl) for 3 min prior addition 3 ml supplemented culture medium. The cells were then centrifuged and resuspended in 0.5 ml of 1% paraformaldehyde for analysis by flow cytometry using a FACScalibur cytometer (BD Biosciences, Mountain View, Calif.).
AS1411 causes a change in cancer cell morphology that is characterized by vacuolization, irregular nuclei, and swollen cells (Xu et al., 2001, J. Biol. Chem., 276:43221-30). […]

[1] = test system: cancer cells (DU145, HeLa, MDA-MB-231) and non-malignant Hs27 skin fibroblasts; experiment: Temperature-dependence of oligonucleotide uptake by flow cytometry; assay type: cell-based; conditions: 10 μM, 37° C. or 4° C. for 2 h, all cell types
Description: FIG. 1 are graphs showing that AS1411 cell internalization is an active process. Cells were plated 18 h before uptake analysis. After incubation as described, cells were washed with ice-cold PBS, incubated with 1 μg/ml 7-AAD, harvested and resuspended in 1% paraformaldehyde containing 2 μg/ml actinomycin D, then analyzed by flow cytometry. (Panel A) DU145 cells were incubated at 37° C. with fresh complete DMEM medium containing 10 μM FL-AS1411 (black line) or 10 μM FL-CRO (gray line) for the time indicated. (Panel B) DU145 cells were incubated for 2 h at 37° C. in complete or serum-free DMEM medium containing 10 μM FL-AS1411, or 10 μM FL-CRO, or no oligonucleotide. (Panel C) Various cell lines were incubated with 10 μM FL-AS1411 (black outline histogram), 10 μM FL-CRO (gray outline histogram) or without DNA (solid gray histogram) at 37° C. or 4° C. for 2 h. All experiments were repeated at least three times. Data are mean of three independent samples; bars, SE; *(p<0.05). […]
To determine whether AS1411 uptake occurs through an active uptake process, the temperature-dependence of AS1411 uptake in cancer cells (DU145, HeLa, MDA-MB-231) and non-malignant Hs27 skin fibroblasts was evaluated using flow cytometry. […]

Substance | stimulation of macropinocytosis compared with tAS1411 (DU145; 0, 5, 10, or 15 μM for 48 h) | dextran uptake after treatment for shorter times (DU145; 1 h, 2 h, and 4 h) | Stimulate MP? (DU145; DU145, Cancer, prostate) | temperature dependence of uptake [1]
5′-d(GGTGGTGGTGGTTGTGGTGGTGGTGG) [AS1411] | same response as tAS1411 | No changes in dextran uptake | Yes | –
5′-Fluor-d(TTTCCTCCTCCTCCTTCTCCTCCTCCTCC) (DNA TTTCCTCCTCCTCCTTCTCCTCCTCCTCC; DNA, 5' {Fluor}, backbone and methylation of C not given here) [FL-CRO, reference compound] | – | – | – | strong temperature dependence

Reference: patent publication US20130065227A1, “METHODS OF INCREASING MACROPINOCYTOSIS IN CANCER CELLS” (priority 2010, published 2013)
